From US20030037344A1, “METHOD FOR EVALUATING THE ABILITY OF A COMPOUND TO INHIBIT NEUROTOXICITY” (priority 1997, published 2003)

Test system: PC12 cells stably transfected with RAGE and transiently transfected with mutant presenilin-2 (N141 mutant)
Assay: TUNEL apoptosis assay in transfected PC12 cells exposed to Aβ
Type: cell-based
Details: Aβ 0.3 and 1 μM, 24 hrs; cells co-transfected to express mutant presenilin-2 and RAGE
Description: Induction of apoptosis. For apoptosis studies, PC12 cultures, either mock-transfected (control), stably transfected with the RAGE-bearing construct or stably transfected with the RAGE-bearing construct and transiently transfected with the mutant presenilin-2 bearing construct, and were then exposed to Aβ (0.3 or 1 μM) for 24 hrs. At the end of this time, apoptosis was determined using the TUNEL assay by counting positively staining nuclei per twenty high-power fields. Under these conditions, mutant presenilin-2 by itself has little effect on apoptosis, as shown previously (FIG. 3).
Generation of Stable Transfected Cells. PC12 cells, grown as described and transfected with pcDNA3-RAGE (the latter comprised of the human RAGE cDNA) (Yan, et al., 1996) using lipofectamine (12 μg/ml) according to the manufacturer's instructions (Gibco-BRL). Cells were maintained in the presence of G418. Transient transfection was performed with a vector including mutant presenilin-2 (N141 mutant) (Wolozin et al., 1996), using lipofectamine, as described (Wolozin et al., 1996). Immunoblotting and immunostaining of PC12 cells for RAGE was performed as described previously (Yan, et al., 1996).
Apoptosis assay. The terminal deoxynucleotidyl transferase-mediated dUTP nick end labeling (TUNEL) assay was performed as described using a kit from Travigen, a peroxide-based TACS-TdTkit (Woolozin, et al., 1996). […]

## Aβ: Aβ (comprised of residues 1-42), synthesized, HPLC purified, purchased from a commercial supplier
  apoptosis (TUNEL, positively staining nuclei per twenty high-power fields): dramatic increase in apoptosis
